Measurements reported in patent publication US20250255981A1, “IMMUNOMODULATORY ANTIBODY-DRUG CONJUGATES” (Seagen Inc., priority 2022, published 2025).

Columns and labels:
CT26 cancer cells = assay: In vivo anti-tumor activity, CT26 tumor model; design: species or system mouse; details: CT26, q7dx3
Method: CT26 cancer cells (ATCC) were cultured in RPMI 1640 modified with 1 mM Sodium Pyruvate, 10 mM HEPES, 2.8 mL 45% Glucose (1.25 g) and supplemented with 10% fetal bovine serum and 1% Pen/Strep/Glutamine. CT26 cancer cells were implanted (0.5*10^6 cells in 200 uL serum-free RPMI 1640) subcutaneously into Balb/c mice.

Renca tumor-bearing mice = assay: In vivo cytokine assay, Renca tumor-bearing mice; design: species or system mouse; RANTES in plasma / TNFa in plasma: unit not given here; details: for IFNγ in plasma / IL1β in plasma / IL12p70 in plasma / IL-6 in plasma / IL-10 in plasma / IP10 in plasma / MCP-1 in plasma / MIP1α in plasma / MIP1β in plasma / RANTES in plasma / TNFa in plasma: 1.48 mg/kg
Method: Cytokines were measured in mouse plasma harvested at 3, 6, 24, or 48 hours after treatment with compounds or ADCs using a Milliplex MAP mouse cytokine/chemokine magnetic bead panel assay kit (MCYTOMAG-70k custom 11-plex kit: MCP1, MIP1a, MIP1(3, TNFα, IFNγ, IL-10, IL-12p70, IL-6, IL-1β, IP10, RANTES) and analyzed using a Luminex™ MAGPIX™ Instrument System. Values that were outside of the standard curve range (<3.2 or […]) were either excluded from calculation of the mean values or, when indicated, converted to […] for calculation of the mean values.
Renca cancer cells (ATCC) were cultured in RPMI-1640 (ATCC) with 10% heat-inactivated fetal bovine serum, Pen-Strep (100 U/mL-100 μg/mL), MEM non-essential amino acids (1×), sodium pyruvate (1 mM), and L-glutamine (2 mM). Renca cancer cells were implanted (2*10^6 cells in 200 μL 25% Matrigel) subcutaneously into Balb/c female mice. In some experiments, Renca tumor cells were engineered to express the indicated murine or human target antigen.
(§1) When tumor volumes reached 100 mm^3, the mice were dosed with either compounds or ADCs by intraperitoneal or intravenous injection at the indicated dosing schedule and tumor volumes were monitored twice weekly. Compounds were formulated in 40% PEG400 in saline.
(§2) A syngeneic system was used to assess the ability of the STING agonist ADCs to induce immune responses in vivo and drive an anti-tumor immune response. The Renca system is a subcutaneous, mouse renal adenocarcinoma model. Female Balb/c mice were implanted with 2×10^6 Renca cells subcutaneously in the flank on day 0. When mean tumor size of 100 mm^3 (measured by using the formula Volume (mm^3)=0.5*Length*Width^2 where length is the longer dimension) was reached mice were randomized into treatment groups of ≥5 mice per group. Animals were then treated intraperitoneally (ADCs or compounds) or intravenously (compounds) with the indicated treatment every 7 days, for 3 doses total (or as indicated). Tumor length and width and the weight of the animals was measured throughout the study and tumor volume was calculated using the formula above. Animals were followed until the tumor volume reached ˜1000 mm^3; animals were then euthanized.

[1] = tested on: wild type (WT) murine bone marrow-derived macrophages; assay: Bone marrow-derived macrophage assay, wild type; type: cell-based, mouse; details: 24 hours
Method: Potency of the compounds described herein was evaluated using mouse bone-marrow derived macrophages cultured from wild type (C57BL/6J, the Jackson Laboratory #000664) or STING-deficient (C57BL/6J-Sting1^gt/J, the Jackson Laboratory #017537) mice. Briefly, mouse bone marrow cells were cultured for 7-10 days in RPMI-1640 (Gibco) with 10% heat-inactivated fetal bovine serum, Pen-Strep (100 U/mL-100 […], Gibco), HEPES (10 mM, Gibco), sodium pyruvate (1 mM, Gibco), GlutaMAX (1×, Gibco), beta-mercaptoethanol ([…], Gibco) and 20-40 ng/mL murine M-CSF (Peprotech, #315-02). Cells were plated in a 96-well flat bottom tissue culture-treated clear polystyrene plate (Corning Costar #3596) at ˜100,000 cells per well in 200 μL with the indicated concentration of the compound. The supernatant was harvested at 24 hours and cytokines were measured using a Milliplex MAP mouse cytokine/chemokine magnetic bead panel assay kit (MCYTOMAG-70k custom 11-plex kit: MCP1, MIP1α, MIP1β, TNFα, IFNγ, IL-10, IL-12p70, IL-1β, IL-6, IP10, RANTES) and analyzed using a Luminex™ MAGPIX™ Instrument System.

Renca cancer cells = assay: In vivo anti-tumor activity, Renca tumor model
Method: In some experiments, Renca tumor cells were engineered to express the indicated murine or human target antigen.
as §1, §2

[2] = tested on: THP1-Dual™ cells (IRF-Lucia luciferase reporter); assay: THP1-Dual™ cell reporter assay; type: cell-based, human
Outline: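 THP1-Dual cells (~100,000 per well) exposed to compound or ADC in supplemented RPMI-1640 with 10% FBS; supernatant taken at 24 h for compounds or 48 h for ADCs. Secreted IRF-driven Lucia luciferase measured by luminescence with QUANTI-Luc reagent.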

SU-DHL-4 = assay: Cancer cell direct cytotoxicity assay, SU-DHL-4; type: cell-based, human; details: 96 hours, read-out: Compound X50
Method: (§3) Cancer cells were counted and plated in 40 μL complete growth media in 384-well, white-walled tissue culture treated plates (Corning). Cell plates were incubated at 37° C. and with 5% CO2 overnight to allow the cells to equilibrate. Stock solutions containing ADCs or free drugs were serially diluted in RPMI-1640+20% fetal bovine serum (FBS). 10 μL of each concentration were then added to each cell plate in duplicate. Cells were then incubated at 37° C. and with 5% CO2 for 96 hours, upon which, the cell plates were removed from the incubator and allowed to cool to room temperature for 30 minutes prior to analysis. CellTiter-Glo® luminescent assay reagent (Promega Corporation, Madison, WI) was prepared according to Promega's protocol. 10 μL of CellTiter-Glo® were added to assay plates using a Formulatrix Tempest liquid handler (Formulatrix) and the plates were protected from light for 30 minutes at room temperature. The luminescence of the samples was measured using an EnVision Multimode plate reader (Perkin Elmer, Waltham, MA). Raw data were analyzed in Graphpad Prism (San Diego, CA) using a nonlinear, 4-parameter curve fit model [Y=Bottom+(Top-Bottom)/(1+10^((Log EC50−X)*HillSlope))]. Results are reported as X50 values, which are defined as the concentration of ADC or free drug required to reduce cell viability to 50%.

A2058 = assay: Cancer cell direct cytotoxicity assay, A2058; type: cell-based, human; details: 96 hours, read-out: Compound X50
Method: as §3

Ls174T = assay: Cancer cell direct cytotoxicity assay, Ls174T; type: cell-based, human; details: 96 hours, read-out: Compound X50
Method: as §3

MDAMB231 = assay: Cancer cell direct cytotoxicity assay, MDAMB231; type: cell-based, human; details: 96 hours, read-out: Compound X50
Method: as §3

DELBVR = assay: Cancer cell direct cytotoxicity assay, DELBVR; type: cell-based, human; details: 96 hours, read-out: Compound X50
Method: as §3

MOLM-13 = assay: Cancer cell direct cytotoxicity assay, MOLM-13; type: cell-based, human; details: 96 hours, read-out: Compound X50
Method: as §3

BxPC3 = assay: Cancer cell direct cytotoxicity assay, BxPC3; type: cell-based, human; details: 96 hours, read-out: Compound X50
Method: as §3

DEL = assay: Cancer cell direct cytotoxicity assay, DEL; type: cell-based, human; details: 96 hours, read-out: Compound X50
Method: as §3

Karpas299 = assay: Cancer cell direct cytotoxicity assay, Karpas299; type: cell-based, human; details: 96 hours, read-out: Compound X50
Method: as §3

786-O = assay: Cancer cell direct cytotoxicity assay, 786-O; type: cell-based, human; details: 96 hours, concentration required to reduce cell viability to 50%, read-out: Compound X50
Method: as §3

L540cy = assay: Cancer cell direct cytotoxicity assay, L540cy; type: cell-based, human; details: 96 hours, read-out: Compound X50
Method: as §3

SMILES: CCn1nc(C)cc1C(=O)Nc1nc2cc(C(N)=O)cc(O)c2n1C/C=C/Cn1c(NC(=O)c2cc(C)nn2CC)nc2cc(C(N)=O)cc(OC)c21 [compound 1, (E)-1-(4-(5-carbamoyl-2-(1-ethyl-3-methyl-1H-pyrazole-5-carboxamido)-7-hydroxy-1H-benzo[d]imidazol-1-yl)but-2-en-1-yl)-2-(1-ethyl-3-methyl-1H-pyrazole-5-carboxamido)-7-methoxy-1H-benzo[d]imidazole-5-carboxamide]
- tumor growth (CT26 cancer cells): minimal tumor growth delay
- IFNγ in plasma (Renca tumor-bearing mice; 3 h after treatment): < 3.2 pg/mL
- IL1β in plasma (Renca tumor-bearing mice; 3 h after treatment): 0.7 pg/mL
- IL12p70 in plasma (Renca tumor-bearing mice; 3 h after treatment): 174 pg/mL
- IL-6 in plasma (Renca tumor-bearing mice; 3 h after treatment): 95.7 pg/mL
- IL-10 in plasma (Renca tumor-bearing mice; 3 h after treatment): 48.8 pg/mL
- IP10 in plasma (Renca tumor-bearing mice; 3 h after treatment): 703 pg/mL
- MCP-1 in plasma (Renca tumor-bearing mice; 3 h after treatment): 168 pg/mL
- MIP1α in plasma (Renca tumor-bearing mice; 3 h after treatment): 55.6 pg/mL
- MIP1β in plasma (Renca tumor-bearing mice; 3 h after treatment): 362 pg/mL
- RANTES in plasma (Renca tumor-bearing mice; 3 h after treatment): 10.6
- TNFa in plasma (Renca tumor-bearing mice; 3 h after treatment): 3.6
- IFNγ in plasma (Renca tumor-bearing mice; 6 h after treatment): 0.2 pg/mL
- IL1β in plasma (Renca tumor-bearing mice; 6 h after treatment): 1.5 pg/mL
- IL12p70 in plasma (Renca tumor-bearing mice; 6 h after treatment): < 3.2 pg/mL
- IL-6 in plasma (Renca tumor-bearing mice; 6 h after treatment): 6.8 pg/mL
- IL-10 in plasma (Renca tumor-bearing mice; 6 h after treatment): 0.8 pg/mL
- IP10 in plasma (Renca tumor-bearing mice; 6 h after treatment): 3390 pg/mL
- MCP-1 in plasma (Renca tumor-bearing mice; 6 h after treatment): 796 pg/mL
- MIP1α in plasma (Renca tumor-bearing mice; 6 h after treatment): 38.9 pg/mL
- MIP1β in plasma (Renca tumor-bearing mice; 6 h after treatment): 169 pg/mL
- RANTES in plasma (Renca tumor-bearing mice; 6 h after treatment): 18.4
- TNFa in plasma (Renca tumor-bearing mice; 6 h after treatment): 1.9
- IFNγ in plasma (Renca tumor-bearing mice; 24 h after treatment): < 3.2 pg/mL
- IL1β in plasma (Renca tumor-bearing mice; 24 h after treatment): 0.8 pg/mL
- IL12p70 in plasma (Renca tumor-bearing mice; 24 h after treatment): 140 pg/mL
- IL-6 in plasma (Renca tumor-bearing mice; 24 h after treatment): 13.5 pg/mL
- IL-10 in plasma (Renca tumor-bearing mice; 24 h after treatment): 34.6 pg/mL
- IP10 in plasma (Renca tumor-bearing mice; 24 h after treatment): 551 pg/mL
- MCP-1 in plasma (Renca tumor-bearing mice; 24 h after treatment): 333 pg/mL
- MIP1α in plasma (Renca tumor-bearing mice; 24 h after treatment): 69.9 pg/mL
- MIP1β in plasma (Renca tumor-bearing mice; 24 h after treatment): 70.7 pg/mL
- RANTES in plasma (Renca tumor-bearing mice; 24 h after treatment): 15.6
- TNFa in plasma (Renca tumor-bearing mice; 24 h after treatment): 2.0
- systemic pro-inflammatory cytokine (IL-6 and TNF) production (Renca tumor-bearing mice; plasma): induced very little pro-inflammatory cytokine (IL-6 and TNF) production
- cytokine production [1]: induced cytokine production
- tumor growth / anti-tumor activity (Renca cancer cells; Renca, q7dx3): some tumor growth delay was observed
- average weight loss (Renca cancer cells; after the 1st and 2nd dose of the treatment): < −5%
- relative potency of free drug, Lucia reporter ([2]; free drug, 24 h (48 h elsewhere in the source)): significantly more potent than (2′, 3′)-Rp,Rpc-diAMPS disodium (Compound B)

SMILES: CCn1nc(C)cc1C(=O)Nc1nc2cc(C(N)=O)cc(OC)c2n1C/C=C/Cn1c(NC(=O)c2cc(C)nn2CC)nc2cc(C(N)=O)cc(OCCCN(C)C(=O)CCN3C(=O)CC(SC[C@H](N)C(=O)O)C3=O)c21 (stereo partly drawn) [compound 16]
- IC50 (SU-DHL-4): > 1000 nM
- IC50 (A2058): > 1000 nM
- IC50 (Ls174T): > 1000 nM
- IC50 (MDAMB231): > 1000 nM
- IC50 (DELBVR): 7 nM
- IC50 (MOLM-13): 27 nM
- IC50 (BxPC3): > 1000 nM
- IC50 (DEL): 4 nM
- EC50 ([2]; small molecules, 24 h, >10,000 nM = minimal activity up to 10 μM, some values average of multiple experiments, read-out: EC50, Lucia reporter signal): 52 nM
- IC50 (Karpas299): > 1000 nM
- IC50 (786-O): > 1000 nM
- IC50 (L540cy): 29 nM
